The values below come from patent US20040097376A1, “Substituted aryl ketones and their use as herbicides” (priority 2000, published 2004).

The structures appear in SMILES notation.

The nature of data set [1]: logP determination by HPLC on reversed phase column (C 18), EEC Directive 79/831 Annex V.A8. The data set is classed as physicochemical. The conditions noted are these: reversed phase C18 HPLC column; pH=2.3. The method, then:
Determination of the logP values indicated in Table 1 took place in accordance with EEC Directive 79/831 Annex V.A8 by HPLC (high performance liquid chromatography) on a reversed phase column (C 18). Temperature: 43° C. (a) Eluent for determination in the acidic range: 0.1% aqueous phosphoric acid, acetonitrile; linear gradient from 10% acetonitrile to 90% acetonitrile—corresponding measured results are marked with ^a) in Table 1. Calibration took place with unbranched alkan-2-ones (having 3 to 16 carbon atoms) whose logP values are known (determination of the logP values on the basis of the retention times by linear interpolation between two consecutive alkanones).

The test system of data set [2] is weeds. Briefly: Pre-emergence test (Example A), effect on weeds. The data set is classed as in vivo. As to conditions: soil sprayed 24 hours after sowing, assessed after three weeks. Here is the method:
To produce an expedient preparation of active substance, 1 part by weight of active substance is mixed with the stated amount of solvent, the stated amount of emulsifier is added and the concentrate is diluted with water to the required concentration.
Seeds of the test plants are sown in normal soil. After 24 hours, the soil is sprayed with the active substance preparation in such a way that the respective desired application rate of active substance per unit area is achieved. The active substance concentration in the spray liquor is selected so that the respective required application rate of active substance is achieved with 1000 litres of water per hectare.
After three weeks, the degree of damage to the plants is assessed in % damage by comparison with the development of the untreated control.

The test system of data set [3] is weeds. Put plainly: Post-emergence test (Example B), effect on weeds. As to conditions: test plants 5-15 cm high sprayed, assessed after three weeks. The data set is classed as in vivo. Here is the method:
To produce an expedient preparation of active substance, 1 part by weight of active substance is mixed with the stated amount of solvent, the stated amount of emulsifier is added, and the concentrate is diluted with water to the required concentration.
The active substance preparation is used to spray test plants which are 5-15 cm high in such a way that the respective desired application rate of active substance per unit area is achieved. The concentration of the spray liquor is chosen so that the respective required application rates of active substance are achieved in 1000 l of water/ha.
After three weeks, the degree of damage to the plants is assessed in % damage by comparison with the development of the untreated control. The meanings are:
0%=no effect (as untreated control)

Consider `N#C/N=C1\SCCN1Cc1cc(C(F)(F)F)ccc1C(=O)O` [Example (II-2), 2-[(2-cyanoimino-1,3-thiazolidin-3-yl)methyl]-4-trifluoro-methylbenzoic acid], for which the chromatographic logP (as a rule, a lipophilicity value derived from retention on a column) in data set [1] stood at 2.01.
Take `N#C/N=C1\SCCN1Cc1cc(C(F)(F)F)ccc1C(=O)C1C(=O)CCCC1=O` [Example 2, 3-[2-[(2,6-dioxocyclohexyl)carbonyl]-5-trifluoromethyl-benzyl]-1,3-thiazolidin-2-ylidenecyanamide]: the chromatographic logP in data set [1] worked out at 2.54. Also, in the data set on weeds [2], the “effect on weeds (degree of damage vs untreated control)” value is “strong effect on weeds”.
With `N#C/N=C1\SCCN1Cc1c(Cl)ccc(C(=O)C2C(=O)CCCC2=O)c1Cl` [Example 1, 3-[2,6-dichloro-3-[(2,6-dioxocyclohexyl)carbonyl]benzyl]-1,3-thiazolidin-2-ylidenecyanamide], the “effect on weeds (degree of damage vs untreated control)” value in the data set on weeds [3] and in the data set with weeds [2] was “strong effect on weeds” each time.
For `COC(=O)c1ccc(C(F)(F)F)cc1CN1CCS/C1=N\C#N` [Example (IIa-2), methyl 2-[(2-cyanoimino-1,3-thiazolidin-3-yl)methyl]-4-trifluoromethylbenzoate], the chromatographic logP in data set [1] was 2.53.
